# Measured values reported in PubChem BioAssay (NCI).
#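 The compound was tested at five concentrations on cells cultured in 96-well plates, with a 48-hour exposure period. GI50 = concentration required for 50% inhibition of growth. TGI denotes the concentration required for complete inhibition of growth.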
# Tests used:
# Experiment in all cases: inhibition of tumour cell growth, NCI panel, 48 h
# [1] = test system: NCI-H522 lung
# [2] = test system: NCI/ADR-RES ovarian
# [3] = test system: OVCAR-5 ovarian
# [4] = test system: RXF 393 renal
# [5] = test system: SF-539 CNS
# [6] = test system: SK-OV-3 ovarian
# [7] = test system: SR leukemia
# [8] = test system: TK-10 renal
# [9] = test system: UACC-257 melanoma
# [10] = test system: UO-31 renal
Structure (SMILES),GI50 [1],TGI [1],GI50 [2],TGI [2],GI50 [3],TGI [3],GI50 [4],TGI [4],GI50 [5],TGI [5],GI50 [6],TGI [6],GI50 [7],TGI [7],GI50 [8],TGI [8],GI50 [9],TGI [9],GI50 [10],TGI [10]
CO/N=C(\COc1ccc2oc(-c3ccccc3)cc(=O)c2c1)c1ccc(F)cc1,15.4 µM,40.5 µM,21 µM,49.9 µM,17.5 µM,39.1 µM,15.8 µM,44.7 µM,20.9 µM,42.9 µM,20 µM,44.8 µM,15.7 µM,> 100 µM,22.9 µM,53 µM,20.8 µM,46.7 µM,18.1 µM,42.1 µM
O=C[C@@H](CO)O[C@H](C=O)n1cnc2c(=O)[nH]cnc21,–,866 µM,–,1810 µM,–,1820 µM,–,1470 µM,–,2230 µM,–,1630 µM,–,1210 µM,–,1830 µM,–,1670 µM,–,1420 µM
COc1cc(CNc2oc(-c3ccccc3)c(-c3ccccc3)c2C#N)cc(CN2CCN(C)CC2)c1O,1.87 µM,3.95 µM,2.1 µM,4.75 µM,1.73 µM,3.55 µM,1.41 µM,2.95 µM,1.72 µM,3.16 µM,2.22 µM,4.06 µM,1.6 µM,4.46 µM,1.62 µM,3.34 µM,1.84 µM,3.71 µM,1.23 µM,2.62 µM
COc1ccc2[nH]c(C(=O)OCc3ccc4c(Cl)cc(Cl)c(O)c4n3)cc2c1,1.19 µM,2.99 µM,2.08 µM,8.16 µM,1.49 µM,2.9 µM,0.407 µM,1.76 µM,1.25 µM,2.5 µM,4.06 µM,17.7 µM,0.38 µM,3.7 µM,1.68 µM,3.05 µM,1.64 µM,4.23 µM,0.378 µM,1.96 µM
CC/C(=C/c1ccc(OC)cc1OC)[N+](=O)[O-],1.79 µM,3.58 µM,3.17 µM,12.6 µM,7.59 µM,22.2 µM,1.88 µM,3.57 µM,2.27 µM,4.73 µM,16.7 µM,30.4 µM,2.61 µM,17 µM,2.62 µM,6.5 µM,2.31 µM,6.29 µM,1.57 µM,3.09 µM
C[C@]12C[C@H](O)[C@H]3[C@@H](CCC4=CC(=O)CC[C@@]43C)[C@@H]1CC[C@@H]2c1csc(-c2ccccc2)n1,–,> 100 µM,–,> 100 µM,–,> 100 µM,–,> 100 µM,–,> 100 µM,–,> 100 µM,–,> 100 µM,–,> 100 µM,–,> 100 µM,–,> 46.2 µM
Cc1ccc(C(=O)NC2CC2)cc1-c1ccc2[nH]ncc2c1,> 25 µM,> 25 µM,> 25 µM,> 25 µM,> 25 µM,> 25 µM,> 25 µM,> 25 µM,> 25 µM,> 25 µM,> 25 µM,> 25 µM,> 25 µM,> 25 µM,> 25 µM,> 25 µM,> 25 µM,> 25 µM,> 22.9 µM,> 25 µM
N#Cc1cccc(C2C3=C(COC3=O)N(CCO)c3cc4c(cc32)OCO4)c1 (configuration not stated),0.561 µM,4.7 µM,3.46 µM,> 50 µM,7.92 µM,> 50 µM,1.26 µM,4.54 µM,1.53 µM,8.52 µM,2.08 µM,> 50 µM,0.313 µM,> 50 µM,15.4 µM,> 50 µM,> 50 µM,> 50 µM,2.63 µM,> 50 µM
O=c1[nH]c(=O)n(C2CC(O)C(CO)O2)cc1C(F)(F)F (configuration not stated),18.3 µM,> 100 µM,4.81 µM,> 100 µM,> 100 µM,> 100 µM,9.38 µM,> 100 µM,0.456 µM,7.21 µM,10.1 µM,> 100 µM,1.02 µM,> 100 µM,> 100 µM,> 100 µM,8.61 µM,> 100 µM,1.75 µM,> 100 µM
N#Cc1cccc(N2C(=O)C3C4C=CC(C3C2=O)C2C(=O)N(c3cccc(C#N)c3)C(=O)C42)c1 (configuration not stated),–,38.2 µM,–,> 100 µM,–,> 63.1 µM,–,22.9 µM,–,61.4 µM,–,34.9 µM,–,49.5 µM,–,50 µM,–,> 63.1 µM,–,61.8 µM
COc1ccc(S(=O)(=O)N(C(C)=O)c2ccccc2/C=C/c2cc[n+]([O-])cc2)cc1,0.225 µM,1.65 µM,2.51 µM,> 10 µM,3.26 µM,> 10 µM,0.456 µM,> 6.85 µM,0.377 µM,2.45 µM,1.05 µM,> 10 µM,0.23 µM,> 10 µM,–,> 10 µM,–,> 10 µM,5.02 µM,> 10 µM
COc1cc(NCCCCCN=C(N)NC(N)=NC(C)C)c2ncccc2c1,1.18 µM,4.58 µM,> 100 µM,> 100 µM,6.09 µM,20.2 µM,6.03 µM,18.3 µM,2.3 µM,12.8 µM,10.9 µM,23.5 µM,2.08 µM,15.8 µM,6.14 µM,19.9 µM,1.04 µM,4.81 µM,27.1 µM,> 100 µM
COc1c(N2CCN(CN3C(=O)C(=Nc4ccc(S(=O)(=O)Nc5ncccn5)cc4)c4cc(Cl)ccc43)C(C)C2)c(F)cc2c(=O)c(C(=O)O)cn(C3CC3)c12 (configuration not stated),> 50 µM,> 50 µM,12.3 µM,38.1 µM,> 50 µM,> 50 µM,8.3 µM,> 50 µM,15.4 µM,40.9 µM,40 µM,> 50 µM,12.4 µM,> 50 µM,13.3 µM,35.2 µM,6.77 µM,17.7 µM,37.5 µM,> 50 µM
O=C(Nc1cccc(C(F)(F)F)c1)Oc1ccc(Cl)c2cccnc12,0.906 µM,4.28 µM,1.23 µM,16.8 µM,3.6 µM,18 µM,1.2 µM,5.49 µM,1.85 µM,7.92 µM,6.64 µM,29.3 µM,0.447 µM,–,4.1 µM,21.4 µM,1.32 µM,3.24 µM,1.06 µM,5.39 µM
